Reference: patent publication US20050148547A1, “Fungicidal mixtures based on benzamidoxime derivatives and azoles” (priority 2002, published 2005)

How the values were obtained:
[1] = system: Erysiphe [syn. Blumeria] graminis forma specialis. tritici; experiment: Activity against mildew of wheat (protective spray, greenhouse); type: in vivo; settings: wheat seedlings Kanzler, 7 days
Method: (§1) Evaluation is carried out by determining the infected leaf areas as a percentage. These percentages are converted into efficacies. The efficacy (W) is calculated as follows using Abbot's formula: [formula] • α corresponds to the fungal infection of the treated plants as a % and • β corresponds to the fungal infection of the untreated (control) plants as a %
(§2) An efficacy of 0 means that the infection level of the treated plants corresponds to that of the untreated control plants; an efficacy of 100 means that the treated plants were not infected.
(§3) The expected efficacies of the mixtures of the active compounds were determined using Colby's formula [R. S. Colby, Weeds 15, 20-22 (1967)] and compared with the observed efficacies. Colby's formula: E=x+y−x·y/100 • E expected efficacy, expressed as a % of the untreated control, when using the mixture of the active compounds A and B at the concentrations a and b • x efficacy, expressed as a % of the untreated control, when using active compound A at a concentration of a • y efficacy, expressed as a % of the untreated control, when using active compound B at a concentration of b
Leaves of wheat seedlings of the cultivar “Kanzler”, grown in pots, were sprayed to runoff point with an aqueous preparation of active compound which had been prepared from a stock solution comprising 10% of active compound, 85% of cyclohexanone and 5% of emulsifier, and 24 hours after the spray coating had dried on the leaves were dusted with spores of mildew of wheat (Erysiphe [syn. Blumeria] graminis forma specialis. tritici). The test plants were then placed in a greenhouse at 20-24° C. and 60-90% relative atmospheric humidity. After 7 days, the extent of the mildew development was determined visually in % infection of the entire leaf area.
(§4) The visually determined values for the percentage of diseased leaf areas were converted into efficacies in % of the untreated control. An efficacy of 0 means the same disease level in the untreated control, an efficacy of 100 means a disease level of 0%. The expected efficacies for the combinations of active compounds were determined using Colby's formula (Colby, S. R. (Calculating synergistic and antagonistic responses of herbicide Combinations”, Weeds, 15, pp. 20-22, 1967) and compared with the observed efficacies.

Puccinia recondita = experiment: Curative activity against brown rust of wheat (greenhouse); type: in vivo; settings: wheat seedlings Kanzler, 7 days
Method: The active compounds, separately or together, are formulated as a 10% emulsion in a mixture of 63% by weight of cyclohexanone and 27% by weight of emulsifier, and diluted with water to the desired concentration.
as §1, §2, §3
Leaves of wheat seedlings of the cultivar “Kanzler”, grown in pots, were dusted with spores of brown rust (Puccinia recondita). The pots were then placed in a chamber with high atmospheric humidity (90-95%), at 20-22° C., for 24 hours. During this time the spores germinated and the germinal tubes penetrated into the leaf tissue. The next day, the infected plants were sprayed to runoff point with an aqueous formulation of active compound prepared from a stock solution consisting of 10% of active compound, 85% of cyclohexanone and 5% of emulsifier. After the spray coating had dried on, the test plants were cultivated in a greenhouse at 20-22° C. and 65-70% relative atmospheric humidity for 7 days. Thereafter, the extent of the rust fungus development on the leaves was determined.
as §4, with “disease level as in the” for “disease level in the”, “Colby's formula (Colby. S. R.” for “Colby's formula (Colby, S. R.”

| Structure (SMILES) | Efficacy in % of the untreated control ([1]; 0.015 ppm in the spray liquor) [%] | Efficacy in % of the untreated control ([1]; 0.06 ppm in the spray liquor) [%] | Efficacy in % of the untreated control ([1]; 0.25 ppm in the spray liquor) [%] | Efficacy in % of the untreated control (Puccinia recondita; 0.015 ppm in the spray liquor) [%] | Efficacy in % of the untreated control (Puccinia recondita; 0.06 ppm in the spray liquor) [%] | Efficacy in % of the untreated control (Puccinia recondita; 0.25 ppm in the spray liquor) [%] | Efficacy in % of the untreated control (Puccinia recondita; 1 ppm in the spray liquor) [%] | Efficacy in % of the untreated control ([1]; 0.125 ppm in the spray liquor) [%] | Efficacy in % of the untreated control ([1]; 1 ppm in the spray liquor) [%] |
| --- | --- | --- | --- | --- | --- | --- | --- | --- | --- |
| CC1(C)CCC(Cc2ccc(Cl)cc2)C1(O)Cn1cncn1 (centres unmarked) [metconazole] | 0 | 0 | 0 | 0 | 0 | 56 |  |  |  |
| CCCCC(C#N)(Cn1cncn1)c1ccc(Cl)cc1 (centres unmarked) [myclobutanil] | 0 | 0 | 0 |  | 0 | 0 | 0 |  |  |
| Fc1ccc(C2(Cn3cncn3)OC2c2ccccc2Cl)cc1 (centres unmarked) [epoxiconazole] | 0 | 0 | 29 | 0 | 11 | 56 |  | 0 | 59 |
